The compounds below were run against T1, purified catalytic domain of recombinant human TACE (rhTACEc) (Homo sapiens, UniProt P78536, N452Q/S266A) (assay: TACE kinetic assay, cleavage of internally quenched fluorescent peptide substrate SPDL-3). Conditions: Ki (nM), TACE inhibitory activity, rhTACEc 70 pM, 30 μM SPDL-3, 90 min pre-incubation at 25° C.
T1 construct: rhTACEc, Residue 215 to 477 with two mutation (S266A and N4520) and a 6×His tail; 6xHis (C); made in house; host or cells: baculovirus/Hi5 insect cells
Format: biochemical

T1 sequence (P78536 215-477 S266A/N452Q limits assumed): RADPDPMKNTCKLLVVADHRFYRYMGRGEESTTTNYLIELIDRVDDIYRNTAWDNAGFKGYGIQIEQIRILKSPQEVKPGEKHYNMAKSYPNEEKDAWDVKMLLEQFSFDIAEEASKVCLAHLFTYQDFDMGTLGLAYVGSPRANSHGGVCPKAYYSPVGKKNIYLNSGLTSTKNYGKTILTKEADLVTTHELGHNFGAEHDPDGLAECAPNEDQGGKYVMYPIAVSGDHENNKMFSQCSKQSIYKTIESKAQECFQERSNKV

Row | SMILES | Ki
1 | COc1ccc2c(c1)C(=O)N(C[C@@]1(C#Cc3ccc4[nH]ccc4c3)NC(=O)NC1=O)C2 [Compound 1129] | 0.17 nM

Same assay, conditions: TACE; class letters A-D; read-out: Ki Rating

Row | SMILES | Ki
2 | COc1ccc2c(c1)C(=O)N(C[C@]1(C#Cc3ccc(C(C)O)cc3)NC(=O)NC1=O)C2 (stereo partly shown) [Compound 1075] | > 100 nM
3 | COc1ccc2c(c1)C(=O)N(C[C@@]1(C#Cc3cnccc3CO)NC(=O)NC1=O)C2 [Compound 1079] | < 5 nM
4 | CON=Cc1ccc(C#C[C@@]2(CN3Cc4ccc(OC)cc4C3=O)NC(=O)NC2=O)cc1 [Compound 1081] | > 100 nM
5 | CON=Cc1ccc(C#C[C@]2(CN3Cc4ccc(OC)cc4C3=O)NC(=O)NC2=O)s1 [Compound 1084] | < 5 nM
6 | CON=Cc1ccc(C#C[C@]2(CN3Cc4ccc(OC)cc4C3=O)NC(=O)NC2=O)cc1 [Compound 1086] | < 5 nM
7 | COc1ccc2c(c1)CCN(CC1(C#Cc3cccnc3)NC(=O)NC1=O)C2=O (stereo not shown) [Compound 1087] | < 5 nM
8 | COc1ccc2c(c1)C(=O)N(C[C@@]1(C#Cc3cccc(C=NO)c3)NC(=O)NC1=O)C2 [Compound 1089] | < 5 nM
9 | COc1ccc2c(c1)CCN(C[C@@]1(C#Cc3ccc(Cl)s3)NC(=O)NC1=O)C2=O [Compound 1093] | < 5 nM
10 | COc1ccc2c(c1)C(=O)N(C[C@@]1(C#Cc3ccc4c(c3)n(C)c(=O)n4C)NC(=O)NC1=O)C2 [Compound 1095] | < 5 nM
11 | COc1ccc2c(c1)CCN(C[C@]1(C#Cc3cccnc3)NC(=O)NC1=O)C2=O [Compound 1096] | > 100 nM
12 | COc1ccc2c(c1)CCN(C[C@]1(C#Cc3ccc(Cl)s3)NC(=O)NC1=O)C2=O [Compound 1097] | > 100 nM
13 | COc1ccc2c(c1)C(=O)N(C[C@@]1(C#Cc3cnc4[nH]c(C)nc4c3C)NC(=O)NC1=O)C2 [Compound 1098] | < 5 nM
14 | COc1ccc2c(c1)C(=O)N(C[C@@]1(C#Cc3ccc4[nH]ccc4c3)NC(=O)NC1=O)C2 [Compound 1129] | < 5 nM
15 | COc1ccc2c(c1)C(=O)N(C[C@@]1(C#Cc3ccc(C(=O)O)cc3)NC(=O)NC1=O)C2 [Compound 1138] | < 5 nM
16 | COc1ccc2c(c1)C(=O)N(C[C@@]1(C#Cc3ccc4c(c3)OCO4)NC(=O)NC1=O)C2 [Compound 1139] | < 5 nM
17 | COc1ccc2c(c1)C(=O)N(C[C@@]1(C#Cc3ccc(Cl)c(C(=O)O)c3)NC(=O)NC1=O)C2 [Compound 1140] | < 5 nM
18 | COc1ccc2c(c1)C(=O)N(C[C@@]1(C#Cc3ccc(C(=O)NCCN(C)C)cc3)NC(=O)NC1=O)C2 [Compound 1142] | < 5 nM
19 | CNC(=O)c1cc(C#C[C@]2(CN3Cc4ccc(OC)cc4C3=O)NC(=O)NC2=O)ccc1Cl [Compound 1144] | < 5 nM
20 | COc1ccc2c(c1)C(=O)N(C[C@@]1(C#Cc3ccc(C(=O)N4CCOCC4)cc3)NC(=O)NC1=O)C2 [Compound 1145] | < 5 nM
21 | COc1ccc2c(c1)C(=O)N(C[C@@]1(C#Cc3ccccc3Cl)NC(=O)NC1=O)C2 [Compound 1146] | < 5 nM
22 | COc1cccc(C#C[C@]2(CN3Cc4ccc(OC)cc4C3=O)NC(=O)NC2=O)c1 [Compound 1147] | < 5 nM
23 | COc1ccc2c(c1)C(=O)N(C[C@@]1(C#Cc3cccc(OC(F)F)c3)NC(=O)NC1=O)C2 [Compound 1148] | < 5 nM
24 | COc1ccc2c(c1)C(=O)N(C[C@@]1(C#Cc3ccc(F)c(OC)c3)NC(=O)NC1=O)C2 [Compound 1149] | < 5 nM
25 | COc1ccc2c(c1)C(=O)N(C[C@@]1(C#Cc3ccc(F)c(O)c3)NC(=O)NC1=O)C2 [Compound 1150] | < 5 nM
26 | COc1ccc2c(c1)C(=O)N(C[C@@]1(C#Cc3ccc(N)nc3)NC(=O)NC1=O)C2 [Compound 1152] | < 5 nM
27 | COc1ccc2c(c1)C(=O)N(C[C@@]1(C#Cc3ccc(N4CCOCC4)nc3)NC(=O)NC1=O)C2 [Compound 1153] | < 5 nM

The remaining lines, values ahead:

Row | Ki | SMILES
28 | > 100 nM | CNCc1cc(C#C[C@@]2(CN3Cc4ccc(OC)cc4C3=O)NC(=O)NC2=O)cs1 [Compound 1074]
29 | < 5 nM | COc1ccc2c(c1)C(=O)N(C[C@@]1(C#Cc3ccc([C@H](C)N)cc3)NC(=O)NC1=O)C2 [Compound 1076]
30 | < 5 nM | CNCc1cc(C#C[C@@]2(CN3Cc4ccc(OC)cc4C3=O)NC(=O)NC2=O)cs1 [Compound 1077]
31 | < 5 nM | COc1ccc2c(c1)C(=O)N(C[C@@]1(C#Cc3ccc(C(C)O)cc3)NC(=O)NC1=O)C2 (stereo partly shown) [Compound 1078]
32 | < 5 nM | COc1ccc2c(c1)C(=O)N(C[C@@]1(C#Cc3sccc3Cl)NC(=O)NC1=O)C2 [Compound 1080]
33 | < 5 nM | CO/N=C(/C)c1ccc(C#C[C@]2(CN3Cc4ccc(OC)cc4C3=O)NC(=O)NC2=O)s1 [Compound 1082]
34 | < 5 nM | CO/N=C(\C)c1ccc(C#C[C@]2(CN3Cc4ccc(OC)cc4C3=O)NC(=O)NC2=O)s1 [Compound 1083]
35 | < 5 nM | CO/N=C/c1cccc(C#C[C@]2(CN3Cc4ccc(OC)cc4C3=O)NC(=O)NC2=O)c1 [Compound 1085]
36 | 5 to 25 nM | COc1ccc2c(c1)CCN(CC1(C#Cc3ccc(Cl)s3)NC(=O)NC1=O)C2=O (stereo not shown) [Compound 1088]
37 | < 5 nM | COc1ccc2c(c1)C(=O)N(C[C@@]1(C#Cc3ccc(C(C)=NO)s3)NC(=O)NC1=O)C2 [Compound 1090]
38 | < 5 nM | COc1ccc2c(c1)C(=O)N(C[C@@]1(C#Cc3ccc(C=NO)cc3)NC(=O)NC1=O)C2 [Compound 1091]
39 | < 5 nM | COc1ccc2c(c1)CCN(C[C@@]1(C#Cc3cccnc3)NC(=O)NC1=O)C2=O [Compound 1092]
40 | > 100 nM | COc1ccc2c(c1)C(=O)N(C[C@]1(C#Cc3cnc4[nH]c(C)nc4c3C)NC(=O)NC1=O)C2 [Compound 1094]
41 | 5 to 25 nM | COc1ccc2c(c1)C(=O)N(C[C@]1(C#Cc3ccc4[nH]ccc4c3)NC(=O)NC1=O)C2 [Compound 1130]
42 | < 5 nM | COc1ccc2c(c1)C(=O)N(C[C@@]1(C#Cc3ccc4cc[nH]c4c3)NC(=O)NC1=O)C2 [Compound 1131]
43 | < 5 nM | COc1ccc2c(c1)C(=O)N(C[C@@]1(C#Cc3cccc4[nH]ccc34)NC(=O)NC1=O)C2 [Compound 1132]
44 | < 5 nM | COc1ccc2c(c1)C(=O)N(C[C@@]1(C#Cc3ccc(C(N)=O)cc3)NC(=O)NC1=O)C2 [Compound 1133]
45 | < 5 nM | COc1ccc2c(c1)C(=O)N(C[C@@]1(C#Cc3cccc(C(N)=O)c3)NC(=O)NC1=O)C2 [Compound 1134]
46 | < 5 nM | CCOC(=O)c1ccc(C#C[C@]2(CN3Cc4ccc(OC)cc4C3=O)NC(=O)NC2=O)cc1 [Compound 1135]
47 | < 5 nM | COc1ccc2c(c1)C(=O)N(C[C@@]1(C#Cc3ccc(-c4ncc[nH]4)cc3)NC(=O)NC1=O)C2 [Compound 1136]
48 | < 5 nM | COc1ccc2c(c1)C(=O)N(C[C@@]1(C#Cc3ccccc3C(N)=O)NC(=O)NC1=O)C2 [Compound 1137]
49 | < 5 nM | CNC(=O)c1ccc(C#C[C@]2(CN3Cc4ccc(OC)cc4C3=O)NC(=O)NC2=O)cc1 [Compound 1141]
50 | < 5 nM | COc1ccc2c(c1)C(=O)N(C[C@@]1(C#Cc3ccc(Cl)c(C(=O)NCCN(C)C)c3)NC(=O)NC1=O)C2 [Compound 1143]
51 | < 5 nM | COc1ccc2c(c1)C(=O)N(C[C@@]1(C#Cc3ccc(F)c(C(N)=O)c3)NC(=O)NC1=O)C2 [Compound 1151]
52 | < 5 nM | COc1ccc2c(c1)C(=O)N(C[C@@]1(C#Cc3ccccc3C#N)NC(=O)NC1=O)C2 [Compound 1154]
53 | < 5 nM | COc1ccc2c(c1)C(=O)N(C[C@@]1(C#Cc3ccc(C)nc3)NC(=O)NC1=O)C2 [Compound 1155]

Same assay, conditions: rhTACEc 70 pM, 30 μM SPDL-3, 90 min pre-incubation at 25° C.; read-out: Ki (nM), TACE inhibitory activity

Row | SMILES | Ki
54 | COc1ccc2c(c1)C(=O)N(C[C@@]1(C#Cc3ccc(C(C)=NO)s3)NC(=O)NC1=O)C2 [Compound 1090] | 0.3 nM
55 | COc1ccc2c(c1)CCN(C[C@@]1(C#Cc3cccnc3)NC(=O)NC1=O)C2=O [Compound 1092] | 0.37 nM
56 | COc1ccc2c(c1)C(=O)N(C[C@@]1(C#Cc3cccc4[nH]ccc34)NC(=O)NC1=O)C2 [Compound 1132] | 1.8 nM
57 | COc1ccc2c(c1)C(=O)N(C[C@@]1(C#Cc3ccc(N)nc3)NC(=O)NC1=O)C2 [Compound 1152] | 0.03 nM
58 | COc1ccc2c(c1)C(=O)N(C[C@@]1(C#Cc3ccc(C)nc3)NC(=O)NC1=O)C2 [Compound 1155] | 0.41 nM
